Non-standard residues stand in square brackets, D forms with d. Residues, ends and D or L forms follow the SMILES beside them. No end group written: not given here.
Assays:
[1] = test system: ES cell-derived cardiomyocytes; test: Interference of compounds with ET-1- or PE-induced hypertrophy of ES cell-derived cardiomyocytes (ANF/BNP RT-PCR); format: cell-based, mouse; settings: for ANF induction (up-regulation) upon ET-1 stimulation, in words / BNP induction (up-regulation) upon ET-1 stimulation, in words: 100 nM ET-1, 24 h; for ANF induction (up-regulation) upon ET-1 stimulation, in words / BNP induction (up-regulation) upon ET-1 stimulation, in words / ANF induction (up-regulation) upon PE stimulation, in words / BNP induction (up-regulation) upon PE stimulation, in words: compound concentration as in Table 1, summary of Table 1; for ANF induction (up-regulation) upon PE stimulation, in words / BNP induction (up-regulation) upon PE stimulation, in words: 100 μM PE;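 for all read-outs here: mRNA levels of ANF and BNP quantified from RT-PCR products by densitometry of bands after agarose gel separation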
Method: PCR products were separated by agarose gel electrophoresis and band intensity was analysed using the BioDocAnalyze system (Biometra).
ES cell-derived cardiomyocytes were stimulated with either 100 nM endothelin-1 (ET-1) or 100 μM phenylephrine (PE) in the presence of the compounds indicated. After 24 hours expression of ANF and BNP mRNA was analyzed by RT-PCR.

[2] = test system: ES cell-derived cardiomyocytes; test: Induction of ANF and BNP expression by hypertrophic stimuli (RT-PCR, FIG. 3); format: cell-based, mouse; settings: suspension culture; 24 h serum starvation, then 24 h stimulation; endothelin-1 100 nM, phenylephrine 200 μM, Angiotensin II 100 nM
Method: Cardiomyocytes differentiated from ES cells were serum-starved for 24 h and subsequently stimulated by endothelin-1 (100 nM; lanes 1, 6, 11), phenylephrine (200 μM; lanes 2, 7, […]) or Angiotensin II (100 nM; lanes 3, 8, 13). Non-stimulated controls were cultured in serum-free medium (lanes 4, 9, 14) or serum-supplemented medium (lanes 5, 10, 15). Subsequently, RNA was extracted and cDNA was synthesized using random hexamer priming. ANF, BNP, and gapdh cDNAs were amplified and PCR products were analyzed by agarose gel electrophoresis. M, size marker. Amplification parameters were as follows. cDNAs were amplified for 32 (ANF and BNP) or 26 (gapdh) PCR cycles consisting each of 1 min at 94° C., 1 min at 56° C., and 1 min at 72° C. The following primers were used: ANF-5′, 5′-[…]-3′ (SEQ ID NO: 14); ANF-3′, 5′-[…]-3′ (SEQ ID NO: 15); BNP-5′, 5′-[…]-3′ (SEQ ID NO: 18); BNP-3′, 5′-[…]-3′ (SEQ ID NO: 19); gapdh-5′, 5′-[…]-3′ (SEQ ID NO: 16); gapdh-3′ 5′-[…]-3′ (SEQ ID NO: 17). Expected PCR product sizes were 468 bp (ANF), 242 bp (BNP), and 349 bp (gapdh).
In a further experiment, the possible induction of an early embryonic gene program upon stimulation by endohelin-1, angiotensin II, or phenylephrine was analysed. To this end, puromycin resistant ES cell-derived cardiomyocytes were obtained as described above; however, after the final […] in puromycin containing medium cells were not transferred to a feeder layer but were kept in suspension culture. Following serum-starvation for 24 h by cultivation in Medium 199, cells were stimulated for 24 h by addition of endothelin-1, phenyleprine, or angiotensin II (Sigma). RNA was extracted and reverse transcribed using standard methods.
Expression of ANF and brain natriuretic peptide (BNP) was analysed by PCR amplification of the respective cDNAs.

[3] = test system: ES cell-derived cardiomyocytes; test: Sarcomeric organization, immunostaining for sarcomeric alpha-actinin (FIG. 2); format: cell-based, mouse; settings: 24 h serum starvation, then 24 h stimulation, endothelin-1 100 nM or phenylephrine 200 μM
Method: (§1) Hypertrophic cardiomyocytes in that cell culture system are characterized by increased size, increased protein synthesis, increase in sarcomeric assembly and reexpression of a fetal gene program, e.g. enhanced expression of the ANF (atrial natriuretic factor) gene. In order to test if embryonic stem (ES) cell-derived cardiomyocytes display similar features upon stimulation, the following experiments were performed. Green fluorescent cardiomyocytes were generated in accordance with the teachings of in international applications WO99/01552 and WO02/051987 in the following way. ES cells (line D3, ATCC, CRL 1934) that were transfected with a bi-cistronic vector containing the genes for green fluorescent protein (GFP) and puromycin-resistance under the transcriptional control of the […] heavy chain promoter (see WO02/051987), were induced to form aggregates (embryonic bodies, EBs) in the absence of LIF either according to the method in WO99/01552 and WO2/051987, respectively, or as described in European patent application no. 03015401.7. EBs were cultured for 9 days in IMDM (Invitrogen) supplemented with 20% FCS (Invitrogen, batch controlled) at 37° C., 5% CO2 and 95% humidity on 10 cm bacteriological dishes (Greiner). Subsequently, puromycin (Sigma, 2.5 μg/ml) was added to the cell culture medium and cells were cultured for further 10 days. […]

[4] = test system: ES cell-derived cardiomyocytes; test: Size of ES cell-derived cardiomyocytes upon hypertrophic stimulation (microscopy, FIG. 1); format: cell-based; settings: 24 h serum starvation, then 24 h stimulation; endothelin-1 100 nM or phenylephrine 200 μM; on inactivated mouse embryonic fibroblasts
Method: as §1

[5] = compound 1 μM, stimulus 100 nM ET-1, 24 h, relative to ET-1-stimulated sample without test compound (=100%)
[6] = compound 1 μM, stimulus 100 μM PE, 24 h, relative to PE-stimulated sample without test compound (=100%)
[7] = compound 100 nM, stimulus 100 nM ET-1, 24 h, relative to ET-1-stimulated sample without test compound (=100%)
[8] = compound 100 nM, stimulus 100 μM PE, 24 h, relative to PE-stimulated sample without test compound (=100%)
[9] = compound 10 μM, stimulus 100 nM ET-1, 24 h, relative to ET-1-stimulated sample without test compound (=100%)
[10] = compound 10 μM, stimulus 100 μM PE, 24 h, relative to PE-stimulated sample without test compound (=100%)

| Compound | ANF induction (up-regulation) upon ET-1 stimulation, in words [1] | BNP induction (up-regulation) upon ET-1 stimulation, in words [1] | ANF induction (up-regulation) upon PE stimulation, in words ([1]; 24 h) | ANF expression [1, 5] | BNP expression [1, 5] [%] | ANF expression [1, 6] | BNP expression [1, 6] | ANF expression compared to control [2] | BNP expression compared to control [2] | other results |
| --- | --- | --- | --- | --- | --- | --- | --- | --- | --- | --- |
| CC(C)C[C@@H]1NC(=O)[C@@H](C(C)C)NC(=O)[C@@H]2CCCN2C(=O)[C@@H](CC(=O)O)NC(=O)[C@@H](Cc2c[nH]c3ccccc23)NC1=O [BQ123] (cyclo(L[dW][dD]P[dV])) | inhibit | inhibit | not | 50% | 60 | 100% (no effect) | 100% (no effect) | – | – | – |
| CCCC[C@@H](NC(=O)[C@@H](Cc1cn(C(=O)OC)c2ccccc12)NC(=O)[C@H](CC(C)(C)C)NC(=O)N1[C@H](C)CCC[C@@H]1C)C(=O)O [BQ788] | inhibit | inhibit | not | 70% | 70 | 100% (no effect) | 100% (no effect) | – | – | – |
| COC(=O)C1=C(C)NC(C)=C(C(=O)OC)C1c1ccccc1[N+](=O)[O-] [Nifedipine] | – | – | – | – | – | – | – | – | – | ANF expression [1, 7]: 100% (no effect); BNP expression [1, 7]: 10%; ANF expression [1, 8]: 20%; BNP expression [1, 8]: 20% |
| COc1cc2nc(N3CCN(C(=O)c4ccco4)CC3)nc(N)c2cc1OC [Prazosin] | no inhibition | no inhibition | inhibition | – | – | – | – | – | – | BNP induction (up-regulation) upon PE stimulation, in words ([1]; 24 h): inhibition; ANF expression [1, 9]: 100% (no effect); BNP expression [1, 9]: 100% (no effect); ANF expression [1, 10]: 40%; BNP expression [1, 10]: 40% |
| CN[C@@H]1C[C@H]2O[C@@](C)([C@@H]1OC)n1c3ccccc3c3c4c(c5c6ccccc6n2c5c31)C(=O)NC4 [Staurosporine] | inhibited | inhibited | inhibited | – | – | – | – | – | – | BNP induction (up-regulation) upon PE stimulation, in words ([1]; 24 h): inhibited; ANF expression [1, 7]: 30%; BNP expression [1, 7]: 30%; ANF expression [1, 8]: 30%; BNP expression [1, 8]: 30% |
| COc1ccc(CCN(C)CCCC(C#N)(c2ccc(OC)c(OC)c2)C(C)C)cc1OC (stereo not drawn) [Verapamil] | – | – | – | 100% (no effect) | 30 | 40% | 20% | – | – | – |
| CNC[C@H](O)c1cccc(O)c1 [phenylephrine] | – | – | – | – | – | – | – | increased | increased | sarcomeric organization upon stimulation [3]: increase in sarcomeric organization; cardiomyocyte size upon stimulation [4]: increase in size |
| Angiotensin II [hypertrophic agonist (Sigma) used as stimulus] | – | – | – | – | – | – | – | modest increase | modest increase | – |
| endothelin-1 (CSCSSLMDKECVYFCHLDIIW; ends and bridges not checked; cysteine pairing not given here; UniProt P05305 53-73, looked up) [hypertrophic agonist (Sigma) used as stimulus] | – | – | – | – | – | – | – | increased | increased | sarcomeric organization upon stimulation [3]: increase in sarcomeric organization; cardiomyocyte size upon stimulation [4]: increase in size |

Source: patent US9726662B2, “Assay for drug discovery based on in vitro differentiated cells” (AXIOGENESIS AG, priority 2004, dated 2017)
